{
  "source": "patent US8119616B2",
  "about": "“Formulation of quinazoline based EGFR inhibitors containing a zinc binding moiety” (Curis, Inc., priority 2007, dated 2012)",
  "key": {"human EGFR": {"biological_target": "T1, human EGFR (Homo sapiens, UniProt P00533)", "T1 construct": "human EGFR (His672-Ala1210); purchased Cell Signaling Technologies; host or cells: baculovirus expression system", "T1 sequence (P00533 672-1210)": "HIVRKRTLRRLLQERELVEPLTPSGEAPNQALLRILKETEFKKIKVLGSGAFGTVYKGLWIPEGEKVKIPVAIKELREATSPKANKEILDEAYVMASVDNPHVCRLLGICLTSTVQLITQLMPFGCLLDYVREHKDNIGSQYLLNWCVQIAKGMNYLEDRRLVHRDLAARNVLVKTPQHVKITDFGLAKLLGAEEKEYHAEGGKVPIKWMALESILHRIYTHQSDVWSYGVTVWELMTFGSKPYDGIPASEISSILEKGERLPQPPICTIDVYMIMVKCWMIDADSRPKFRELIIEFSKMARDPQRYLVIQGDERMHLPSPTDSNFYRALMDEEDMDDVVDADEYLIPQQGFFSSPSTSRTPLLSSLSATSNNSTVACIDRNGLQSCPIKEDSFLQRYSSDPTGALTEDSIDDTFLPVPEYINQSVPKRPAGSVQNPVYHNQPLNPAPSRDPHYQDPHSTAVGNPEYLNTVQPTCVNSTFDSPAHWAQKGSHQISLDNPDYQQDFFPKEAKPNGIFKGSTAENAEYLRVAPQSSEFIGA", "assay": "HTScan EGF Receptor Kinase assay", "assay_type": "biochemical", "details": "FIG. 1", "procedure": "The ability of compounds to inhibit receptor kinase (EGFR) activity was assayed using HTScan™ EGF Receptor Kinase Assay Kits (Cell Signaling Technologies, Danvers, Mass.). […] The protein was purified by one-step affinity chromatography using glutathione-agarose.\nImmediately transfer enzyme from −80° C. to ice. Allowed enzyme to thaw on ice. […] Returned immediately to ice. […] Incubated reaction plate at room temperature for 30 minutes. […] Added 100 μl/well primary antibody. Incubated at room temperature for 60 minutes. […] Added 100 μl/well diluted antibody. Incubated at room temperature for 30 minutes. […] Incubated at room temperature for 5 minutes."}, "HDAC": {"tested_on": "HDAC", "assay": "Ac-H4 and Ac-H3 accumulation in MDA-MB-468 breast cancer cell line", "assay_type": "cell-based", "details": "FIG. 2"}, "EGFR": {"tested_on": "EGFR", "assay": "EGFR phosphorylation in MDA-MB-468 breast cancer cell line", "assay_type": "cell-based", "details": "FIG. 2", "procedure": "Allowed A431 cell growth in a T75 flask using standard tissue culture procedures until cells reach near confluency (˜1.5×10^7) cells; D-MEM, 10% FBS). Under sterile conditions dispensed 100 μl of the cell suspension per well in 96-well microplates (x cells plated per well). Incubated cells and monitor cell density until confluency is achieved with well-to-well consistency; approximately three days. Removed complete media from plate wells by aspiration or manual displacement. Replaced media with 50 μl of pre-warmed serum free media per well and incubated 4 to 16 hours. Made two fold serial dilutions of inhibitor using pre-warmed D-MEM so that the final concentration of inhibitor range from 10 μM to 90 pM. Removed media from A431 cell plate. Added 100 μl of serial diluted inhibitor into cells and incubate 1 to 2 hours. Removed inhibitor from plate wells by aspiration or manual displacement. Added either serum free media for resting cells (mock) or serum free media with 100 ng/ml EGF. Used 100 μl of resting/activation media per well. Allowed incubation at 37° C. for 7.5 minutes. Removed activation or stimulation media manually or by aspiration. Immediately fixed cells with 4% formaldehyde in 1×PBS. […] Determined the ratio of […] protein (700/800) using Odyssey software and plot the results in Graphpad Prism (V4.0a)."}, "[1]": {"tested_on": "various cancer cell lines", "assay": "Anti-proliferative activity in various cancer cell lines (Table D, FIG. 3)", "assay_type": "cell-based", "details": "five major types of cancer (lung, breast, prostate, colon, and pancreas)", "procedure": "Cell Proliferation Assay:\nCancer cell lines were plated at 5,000 to 10,000 per well in 96-well flatted bottomed plates with various concentration of compounds. The cells were incubated with compounds for 72 hours in the presence of 0.5% of fetal bovine serum. Growth inhibition was accessed by adenosine triphosphate (ATP) content assay using Perkin Elmer ATPlite kit. ATPlite is an ATP monitoring system based on firefly luciferase. Briefly, 25 μl of mammalian cell lysis solution was added to 50 μl of phenol red-free culture medium per well to lyse the cells and stabilize the ATP. 25 μl of substrate solution was then added to the well and subsequently the luminescence was measured.\nTable D illustrates the potency of compounds of the invention."}, "A549 NSCLC": {"tested_on": "A549 NSCLC", "assay": "A549 NSCLC Xenograft model", "assay_type": "in vivo, mice", "details": "compared with vehicle or control", "procedure": "A representative protocol for the in vivo experiment is as followed:\n1-10×10^6 human cancer cells were implanted subcutaneously to the athymic (nu/nu) mice. When the tumors reached about 100 mm^3 in volume, the mice were treated with the compound by tail vein infusion. Routinely 5 groups (8-12 mice per group) are needed for a typical efficacy study, including one negative control, one positive control, and three testing groups for 3 dose levels of the same compound. Usually a 7-7-5 (on-off-on) regimen was used for one typical study. The tumor size was measured with an electronic caliper and body weight measured with a scale twice weekly. The tumors were removed from euthanized mice at the end of the study. One half of each tumor was frozen in dry ice and stored at −80° C. for PK or Western blot analysis. The other half was fixed with formalin. The fixed tissues were processed, embedded in paraffin and sectioned for immunohistochemistry staining. Protocol for Radioisotope assay for HER2"}, "[2]": {"details": "male, CD-1, mouse, in vivo, iv, 9 day", "method": "Single dosing MTD in mice • a. CD-1 mice, male, 24-26 gram • b. Dosing at 0, 50, 100, 200, 400 mg/kg, iv infusion 2 min • c. 8 mice per group\n(§1) Stock solution is diluted with 30% CAPTISOL before use."}, "[3]": {"details": "male, CD-1, mouse, in vivo, ip, 7 days", "method": "7-day-multiple dosing MTD in mice • a. CD-1 mice, male, 24-26 gram • b. Dosing at 0, 50, 100, 200 mg/kg/d ip • c. 6 mice per group • d. Blood and organs will be collected 2 hr after last dosing on Day 7 for hematology\nas §1"}, "[4]": {"details": "both, Sprague Dawley, rat, in vivo, iv, 8 days", "method": "Single dosing MTD in rats • a. Sprague Dawley, male and female, 240-260 gram • b. Dosing at 0, 25, 50, 100, 200 mg/kg, iv infusion 5 min • c. 6 rats per group (3 male and 3 female)\nas §1"}, "[5]": {"details": "both, Sprague Dawley, rat, in vivo, iv, 7 days", "method": "7-day multiple dosing MTD in rats • a. Sprague Dawley, male and female, 220-250 gram • b. Dose, 25, 50, 100, 200 mg/kg/d) iv infusion 5 min • c. 6 per group (3 male and 3 female) • d. Blood and organs will be collected 2 hr after last dosing on Day 7 for hematology Compound Preparation\nas §1"}},
  "note": "Like-named read-outs stand apart in the source and are kept apart here.",
  "data": [
    {"compound": "C#Cc1cccc(Nc2ncnc3cc(OC)c(OCCCCCCC(=O)NO)cc23)c1", "note": "[Compound 12, 7-(4-(3-ethynylphenylamino)-7-methoxyquinazolin-6-yloxy)-N-hydroxyheptanamide]", "values": [
      {"measurement": "activity in EFGR enzyme assay compared with erlotinib and SAHA", "setting": "human EGFR", "result": "more active than erlotinib and SAHA"},
      {"measurement": "inhibition of histone acetylation compared with SAHA", "setting": "HDAC", "result": "improvement in inhibition"},
      {"measurement": "inhibition of EGFR phosphorylation compared with Erlotinib", "setting": "EGFR", "result": "improvement in inhibition"},
      {"measurement": "response of cell lines compared with a combination of erlotinib and SAHA", "setting": "[1]", "result": "responded better to compound 12 than a combination of erlotinib and SAHA"},
      {"measurement": "effect on tumor size / tumor growth", "setting": "A549 NSCLC", "result": "attenuated tumor growth"},
      {"measurement": "dose that did not result in a significant change in body weight", "setting": "[2]", "result": "up to 200 mg/kg"},
      {"measurement": "dose that did not result in a significant change in body weight", "setting": "[3]", "result": "up to 100 mg/kg"},
      {"measurement": "dose that did not result in a significant change in body weight", "setting": "[4]", "result": "up to 200 mg/kg"},
      {"measurement": "dose that did not result in a significant change in body weight or food consumption", "setting": "[5]", "result": "up to 100 mg/kg"}
    ]}
  ]
}
